Laboratory results as given in patent US10344019B2 (priority 2010, dated 2019).
pEC50: −log10 of the molar value.

Experiments:
Test in all cases: microbe, parasite or virus in culture
Format in all cases: cell-based
[1] = system: HCV 2a JFH-1 Rluc cells (dicistronic genotype 2a JFH-1 replicon, RLuc reporter); conditions: Hepatitis C virus, 72 h, Table 2; genotype 2a JFH-1 replicon, 72 hours; read-out: 2a JFH
Method in brief: (§1)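 Replicon cells stably carrying the listed RLuc-encoding dicistronic replicons were seeded and treated with DMSO serial dilutions of compound (10 mM stocks) diluted into culture medium. After 72 h, cells were lysed and Renilla luciferase activity measured. EC50 was derived by non-linear regression.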

[2] = system: HCV 3a RLuc cells (NS5A chimeric genotype 1b Con1 replicon with consensus genotype 3a NS5A gene); conditions: Hepatitis C virus, read-out: 3a, Table 2; genotype 3a NS5A chimeric replicon
Method in brief: as §1

[3] = system: HCV 4a Rluc cells (NS5A chimeric genotype 1b Con1 replicon with genotype 4a NS5A gene); conditions: Hepatitis C virus, read-out: 4a
Method in brief: as §1

[4] = system: HCV 1a RLuc cells (dicistronic genotype 1a H77 replicon, RLuc reporter); conditions: Hepatitis C virus, 72 h, Table 2; genotype 1a H77 replicon, 72 hours; read-out: 1a
Method in brief: as §1

[5] = system: HCV 1b RLuc cells (dicistronic genotype 1b Con1 replicon, RLuc reporter); conditions: Hepatitis C virus, 72 h, read-out: 1b (nM)
Method in brief: as §1

Compound | pEC50 [1] | pEC50 [2] | pEC50 [3] | pEC50 [4] | EC50 [5]
COC(=O)N[C@H](C(=O)N1CCC[C@H]1c1ncc(-c2ccc(-c3ccc4c(ccc5nc([C@@H]6CC7(CN6C(=O)[C@@H](NC(=O)OC)[C@@H](C)OC)OCCO7)[nH]c54)c3)cc2)[nH]1)C(C)C [Example 90] | 9.00 to 12.00 | 8.30 to 9.00 | 9.00 to 12.00 | 9.00 to 12.00 | 0.044 nM
COC(=O)N[C@H](C(=O)N1CCC[C@H]1c1ncc(-c2ccc(-c3ccc4c(ccc5nc([C@@H]6CC7(CN6C(=O)[C@@H](NC(=O)OC)C6CCOCC6)OCCO7)[nH]c54)c3)cc2)[nH]1)C(C)C [Example 91] | 9.00 to 12.00 | 8.30 to 9.00 | 9.00 to 12.00 | 9.00 to 12.00 | 0.1 nM
COC(=O)N[C@H](C(=O)N1CCC[C@H]1c1ncc(-c2ccc3c(c2)CCc2cc(-c4cnc([C@@H]5[C@H]6CC[C@H](C6)N5C(=O)[C@@H](NC(=O)OC)C5CCOCC5)[nH]4)ccc2-3)[nH]1)C(C)C [Example 92] | 9.00 to 12.00 | 9.00 to 12.00 | 9.00 to 12.00 | 9.00 to 12.00 | 0.047 nM
COC(=O)N[C@H](C(=O)N1CCC[C@H]1c1ncc(-c2ccc3c(c2)CCc2cc(-c4cnc([C@@H]5[C@H]6CC[C@H](C6)N5C(=O)[C@@H](NC(=O)OC)[C@@H](C)OC)[nH]4)ccc2-3)[nH]1)C(C)C [Example 93] | 9.00 to 12.00 | 9.00 to 12.00 | 9.00 to 12.00 | 9.00 to 12.00 | 0.023 nM
COC(=O)N[C@H](C(=O)N1CCC[C@H]1c1ncc(-c2ccc3c(c2)COc2cc(-c4ccc5nc([C@@H]6[C@H]7CC[C@H](C7)N6C(=O)[C@H](NC(=O)OC)c6ccccc6)[nH]c5c4)ccc2-3)[nH]1)C(C)C [Example 94] | 9.00 to 12.00 | 9.00 to 12.00 | 9.00 to 12.00 | 9.00 to 12.00 | 0.007 nM
COC(=O)N[C@H](C(=O)N1CC2(CC2)C[C@H]1c1ncc(-c2ccc3c(c2)C(F)(F)c2cc(-c4ccc5nc([C@@H]6[C@H]7CC[C@H](C7)N6C(=O)[C@@H](c6ccccc6)N6CCOCC6)[nH]c5c4)ccc2-3)[nH]1)C(C)C [Example 96] | 7.36 to 9.00 | 8.30 to 9.00 | 9.00 to 12.00 | 9.00 to 12.00 | 0.006 nM
COC(=O)N[C@H](C(=O)N1CC2(CC2)C[C@H]1c1ncc(-c2ccc3c(c2)C(F)(F)c2cc(-c4ccc5nc([C@@H]6[C@H]7CC[C@H](C7)N6C(=O)[C@H](c6ccccc6)N6CCOCC6)[nH]c5c4)ccc2-3)[nH]1)C(C)C [Example 97] | 7.36 to 9.00 | < 8.30 | 9.00 to 12.00 | 7.36 to 9.00 | 0.009 nM
COC(=O)N[C@H](C(=O)N1[C@@H]2CC[C@@H](C2)[C@H]1c1ncc(-c2ccc(-c3ccc(-c4cnc([C@@H]5C[C@H]6C[C@H]6N5C(=O)[C@@H](NC(=O)OC)C(C)C)[nH]4)cc3)cc2)[nH]1)C(C)C [Example 99] | 9.00 to 12.00 | 8.30 to 9.00 | 9.00 to 12.00 | 9.00 to 12.00 | 0.021 nM
COC(=O)N[C@H](C(=O)N1CCC[C@H]1c1nc2ccc3cc(-c4ccc(-c5cnc([C@@H]6[C@H]7CC[C@H](C7)N6C(=O)[C@@H](NC(=O)OC)[C@@H](C)OC)[nH]5)c(F)c4)ccc3c2[nH]1)C(C)C [Example 100] | 9.00 to 12.00 | 9.00 to 12.00 | 9.00 to 12.00 | 9.00 to 12.00 | 0.004 nM
COC(=O)N[C@H](C(=O)N1[C@@H]2CC[C@@H](C2)[C@H]1c1ncc(-c2ccc3cc(-c4ccc5c(ccc6nc([C@@H]7CCCN7C(=O)[C@H](NC(=O)OC)c7ccccc7)[nH]c65)c4)ccc3c2)[nH]1)C1CCOCC1 [Example 101] | 9.00 to 12.00 | 9.00 to 12.00 | 9.00 to 12.00 | 9.00 to 12.00 | 0.011 nM
COC(=O)N[C@H](C(=O)N1[C@@H]2CC[C@@H](C2)[C@H]1c1ncc(-c2ccc3cc(-c4ccc5c(ccc6nc([C@@H]7CCCN7C(=O)[C@H](NC(=O)OC)c7ccccc7)[nH]c65)c4)ccc3c2)[nH]1)[C@@H](C)OC [Example 102] | 9.00 to 12.00 | 9.00 to 12.00 | 9.00 to 12.00 | 9.00 to 12.00 | 0.009 nM
